According to patent US7511041B2, “Fused azole-pyrimidine derivatives” (Bayer Pharmaceuticals Corporation, priority 2002, dated 2009):
Where two headings read alike, the source gives them in different places.

Key:
[1] = molecular target: T1, Recombinant human PI3Kγ (full length human PI3K p110γ) (Homo sapiens, UniProt P48736); assay: Kinase assay of PI3Kγ (solid-phase lipid kinase assay); type: biochemical
T1 construct: full length human PI3K p110γ fused with a His6-tag at the C-terminus; His6 (C); purchased ALEXIS BIOCHEMICALS #201-055-C010; host or cells: S. frugiperda 9 insect cells
T1 sequence (P48736 whole entry, the tested form may be a part): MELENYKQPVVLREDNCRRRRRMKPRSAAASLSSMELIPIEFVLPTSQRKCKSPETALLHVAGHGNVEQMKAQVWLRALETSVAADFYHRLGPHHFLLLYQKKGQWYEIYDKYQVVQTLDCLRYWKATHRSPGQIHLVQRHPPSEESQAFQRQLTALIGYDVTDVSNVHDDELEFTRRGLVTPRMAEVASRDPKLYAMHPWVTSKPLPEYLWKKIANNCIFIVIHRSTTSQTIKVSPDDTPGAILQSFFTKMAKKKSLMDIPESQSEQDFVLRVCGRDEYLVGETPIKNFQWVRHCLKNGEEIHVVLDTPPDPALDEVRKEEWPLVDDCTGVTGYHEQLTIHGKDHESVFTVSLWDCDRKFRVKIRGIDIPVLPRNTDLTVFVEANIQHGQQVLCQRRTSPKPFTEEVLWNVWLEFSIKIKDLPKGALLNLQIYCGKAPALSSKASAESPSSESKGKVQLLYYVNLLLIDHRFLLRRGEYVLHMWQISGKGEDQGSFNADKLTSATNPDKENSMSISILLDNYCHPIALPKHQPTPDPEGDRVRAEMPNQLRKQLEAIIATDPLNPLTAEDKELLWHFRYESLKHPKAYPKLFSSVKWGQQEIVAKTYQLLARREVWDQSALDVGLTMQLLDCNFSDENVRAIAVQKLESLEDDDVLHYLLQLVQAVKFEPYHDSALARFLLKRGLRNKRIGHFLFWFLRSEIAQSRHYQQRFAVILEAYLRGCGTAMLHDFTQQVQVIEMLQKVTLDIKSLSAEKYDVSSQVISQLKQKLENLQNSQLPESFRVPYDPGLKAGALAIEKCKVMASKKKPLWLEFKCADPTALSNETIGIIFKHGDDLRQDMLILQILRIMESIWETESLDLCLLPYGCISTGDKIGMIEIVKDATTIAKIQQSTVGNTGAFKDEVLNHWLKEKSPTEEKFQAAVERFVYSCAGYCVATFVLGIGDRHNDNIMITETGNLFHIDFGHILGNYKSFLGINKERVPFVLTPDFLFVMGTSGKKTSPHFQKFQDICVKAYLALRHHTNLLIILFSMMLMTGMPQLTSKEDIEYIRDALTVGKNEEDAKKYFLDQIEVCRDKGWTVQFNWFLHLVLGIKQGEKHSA

[2] = Table 1, isozyme not given, read-out: in vitro
[3] = in vitro PI3K-γ inhibitory activity, class symbols A-D, read-out: in vitro PI3K-gamma
[4] = in vitro PI3K-γ inhibitory activity, class symbols, read-out: in vitro PI3K-gamma

Row | SMILES | IC50 [1, 2] | melting point | IC50 [1, 3] | IC50 [1, 4]
1 | CC(=O)Nc1ccc(/C(O)=C/C2=Nc3cc(N4CCOCC4)ccc3C3=NCCN23)cn1 [Example 1-96] | < 100 nM | 269 °C (dec.) |  | 
2 | O=C(NC1=Nc2ccccc2C2=NCCN12)c1ccccc1.O=C(O)C(F)(F)F [Example 2-215] |  | 238 to 242 °C | 100 to 500 nM | 
3 | CC(=O)Nc1ccc(C(=O)NC2=Nc3c(Cl)cccc3C3=NCCN23)cn1.Cl [Example 2-105] |  | > 280 °C |  | < 100 nM
4 | Cl.O=C(NC1=Nc2ccc(Cl)cc2C2=NCCN12)c1ccc2[nH]cnc2c1 [Example 2-86] |  | 305 °C (dec.) |  | 100 to 500 nM
5 | CC(=O)Nc1ccc(/C(O)=C/C2=Nc3cc(N4CCN(C)CC4)ccc3C3=NCCN23)cn1 [Example 1-105] | 100 to 500 nM | 292 °C (dec.) |  | 
6 | Cc1nc(C)c(C(=O)NC2=Nc3ccccc3C3=NCCN23)s1 [Example 2-189] |  | 243 °C (dec.) |  | 100 to 500 nM
7 | COc1cc2c(c(OC)c1C)N=C(NC(=O)c1cccnc1)N1CCN=C21.Cl [Example 2-76] |  | 235 °C (dec.) |  | 100 to 500 nM
8 | O=C(NC1=Nc2cc(Cl)ccc2C2=NCCN12)c1cccs1 [Example 2-354] |  | 228 °C | 500 to 2000 nM | 
9 | O=C(NC1=Nc2ccccc2C2=NCCN12)c1csc(-c2cccnc2)n1 [Example 2-319] |  | 260 to 261 °C | > 2000 nM | 
10 | CC(=O)Nc1ccc(/C(O)=C/C2=Nc3c(CN4CCOCC4)cccc3C3=NCCN23)cn1 [Example 1-208] | 100 to 500 nM | 253 °C (dec.) |  | 
11 | Cl.O/C(=C\C1=Nc2c(F)cccc2C2=NCCN12)c1cccnc1 [Example 1-71] | 100 to 500 nM | 303 °C |  | 
12 | CNC(=O)COc1ccc2c(c1OC)N=C(/C=C(\O)c1cccnc1)N1CCN=C21.Cl [Example 1-25] | < 100 nM | 240 °C (dec.) |  | 
13 | COc1c(OCC(=O)N2CCOCC2)ccc2c1N=C(/C=C(\O)c1cccnc1)N1CCN=C21 [Example 1-29] | < 100 nM | 235 °C |  | 
14 | Cc1nc2ncccc2cc1C(=O)NC1=Nc2ccccc2C2=NCCN12 [Example 2-174] |  | 296 °C (dec.) |  | 100 to 500 nM
15 | Cc1ccc2c(c1)C1=NCCN1C(NC(=O)c1cccnc1)=N2.Cl [Example 2-91] |  | > 290 °C |  | 100 to 500 nM
16 | COc1c(OCC(=O)NC(C)C)ccc2c1N=C(/C=C(\O)c1cccnc1)N1CCN=C21.Cl [Example 1-26] | < 100 nM | 245 °C (dec.) |  | 
17 | O=C(NC1=Nc2ccccc2C2=NCCN12)C(F)(F)C(F)(F)F [Example 2-333] |  | 210 to 211 °C | > 2000 nM | 
18 | O=C(NC1=Nc2ccccc2C2=NCCN12)c1csc(-c2ccncc2)n1 [Example 2-321] |  | 281 °C (dec.) | > 2000 nM | 
19 | Cc1cnc(C(=O)NC2=Nc3ccccc3C3=NCCN23)cn1 [Example 2-294] |  | 257 °C (dec.) | 500 to 2000 nM | 
20 | COC(=O)c1ccc(C(=O)NC2=Nc3ccccc3C3=NCCN23)cc1 [Example 2-273] |  | 253 to 255 °C | > 2000 nM | 
21 | O=[N+]([O-])c1cc(/C(O)=C/C2=Nc3ccccc3C3=NCCN23)cs1 [Example 1-178] | > 2000 nM | 255 to 258 °C |  | 
22 | Cc1noc(C)c1C(=O)NC1=Nc2ccccc2C2=NCCN12.Cl [Example 2-187] |  | 280 to 281 °C |  | 100 to 500 nM
23 | O=C(NC1=Nc2ccccc2C2=NCCN12)c1cncc(O)c1 [Example 2-138] |  | 273 °C (dec.) |  | < 100 nM
24 | CN(C)CCCOc1cccc2c1N=C(/C=C(\O)c1cccnc1)N1CCN=C21 [Example 1-87] | 100 to 500 nM | 235 °C (dec.) |  | 

Row | SMILES | IC50 [1, 2] | melting point | IC50 [1, 3] | IC50 [1, 4]
25 | COc1cccc2c1N=C(NC(=O)c1ccc3[nH]cnc3c1)N1CCN=C21 [Example 2-124] |  | 287 °C |  | < 100 nM
26 | Cl.O=C(NC1=Nc2cc(OCCn3cccc3)ccc2C2=NCCN12)c1cccnc1 [Example 2-196] |  | 239 °C |  | 100 to 500 nM
27 | CCOc1ccc2c(c1OC)N=C(/C=C(\O)c1cccnc1)N1CCN=C21 [Example 1-13] | < 100 nM | 267 to 268 °C |  | 
28 | CCC/C(O)=C/C1=Nc2ccccc2C2=NCCN12 [Example 1-182] | > 2000 nM | 113 °C |  | 
29 | O/C(=C\C1=Nc2ccncc2C2=NCCN12)c1cccnc1 [Example 1-165] | 100 to 500 nM | 250 °C |  | 
30 | COc1cccc2c1N=C(NC(=O)c1cccnc1C)N1CCN=C21 [Example 2-116] |  | 204 to 205 °C |  | 100 to 500 nM
31 | Cc1ccc2c(c1OCCN1CCOCC1)N=C(/C=C(\O)c1cccnc1)N1CCN=C21 [Example 1-39] | 100 to 500 nM | 217 °C |  | 
32 | Cl.O=C(NC1=Nc2cc(Cl)ccc2C2=NCCN12)c1cccnc1 [Example 2-38] |  | 308 °C |  | 100 to 500 nM
33 | COc1c(OCC#N)ccc2c1N=C(/C=C(\O)c1cccnc1)N1CCN=C21 [Example 1-195] | < 100 nM | 284 to 285 °C |  | 
34 | COc1ccc2c(c1OC)N=C(NC(=O)c1cncc(O)c1)N1CCN=C21.Cl [Example 2-368] |  | 240 °C (dec.) | < 100 nM | 
35 | NS(=O)(=O)c1ccc(C(=O)NC2=Nc3ccccc3C3=NCCN23)c(Cl)c1 [Example 2-249] |  | 240 °C (dec.) | > 2000 nM | 
36 | O/C(=C\C1=Nc2ncccc2C2=NCCN12)c1ccc2[nH]cnc2c1 [Example 1-159] | < 100 nM | > 300 °C |  | 
37 | COc1c(C)cc(C(=O)NC2=Nc3ccccc3C3=NCCN23)cc1C [Example 2-220] |  | 216 to 218 °C | > 2000 nM | 
38 | O/C(=C\C1=Nc2c(cccc2C(F)(F)F)C2=NCCN12)c1cccnc1 [Example 1-80] | 100 to 500 nM | 275 °C |  | 
39 | COc1cc2c(cc1OC)C1=NCCN1C(/C=C(\O)c1ccc3[nH]cnc3c1)=N2.Cl [Example 1-57] | < 100 nM | 240 °C (dec.) |  | 
40 | COc1ccc2c(c1OCCN1CCOCC1)N=C(/C=C(\O)c1cccnc1)N1CCN=C21 [Example 1-36] | < 100 nM | 197 °C |  | 
41 | O=C(NC1=Nc2cccc(Cl)c2C2=NCCN12)c1cccnc1 [Example 2-357] |  | 243 °C | 500 to 2000 nM | 
42 | COc1cccc2c1N=C(NC(=O)c1cccnc1C)N1CCN=C21.Cl [Example 2-117] |  | 251 °C (dec.) |  | < 100 nM
43 | Cc1ccc(C(=O)NC2=Nc3ccccc3C3=NCCN23)c(Cl)n1.Cl [Example 2-156] |  | 287 °C (dec.) |  | 100 to 500 nM
44 | COc1c(OC(C)C)ccc2c1N=C(/C=C(\O)c1cccnc1)N1CCN=C21 [Example 1-14] | < 100 nM | 252 to 253 °C |  | 
45 | O/C(=C\C1=Nc2ccccc2C2=NCCN12)c1cccs1 [Example 1-146] | < 100 nM | 193 °C |  | 
46 | COc1cc2c(cc1OC)C1=NCCN1C(NC(=O)c1cccs1)=N2 [Example 2-62] |  | 248 °C |  | 100 to 500 nM
47 | CN(C)c1ccc(C(=O)NC2=Nc3ccccc3C3=NCCN23)cn1.Cl [Example 2-283] |  | 311 °C (dec.) | 500 to 2000 nM | 
